Results reported in article PMC8869358, “High-Throughput Chemical Screening and Structure-Based Models to Predict hERG Inhibition” (Biology, 2022).
Where a name gives a salt, the structure may show the parent alone.

Each compound was assayed against hERG (Homo sapiens, UniProt Q12809) (assay: cell-based). Conditions: (-LOG10(IC50), µM).
Sequence of hERG (Q12809 whole entry): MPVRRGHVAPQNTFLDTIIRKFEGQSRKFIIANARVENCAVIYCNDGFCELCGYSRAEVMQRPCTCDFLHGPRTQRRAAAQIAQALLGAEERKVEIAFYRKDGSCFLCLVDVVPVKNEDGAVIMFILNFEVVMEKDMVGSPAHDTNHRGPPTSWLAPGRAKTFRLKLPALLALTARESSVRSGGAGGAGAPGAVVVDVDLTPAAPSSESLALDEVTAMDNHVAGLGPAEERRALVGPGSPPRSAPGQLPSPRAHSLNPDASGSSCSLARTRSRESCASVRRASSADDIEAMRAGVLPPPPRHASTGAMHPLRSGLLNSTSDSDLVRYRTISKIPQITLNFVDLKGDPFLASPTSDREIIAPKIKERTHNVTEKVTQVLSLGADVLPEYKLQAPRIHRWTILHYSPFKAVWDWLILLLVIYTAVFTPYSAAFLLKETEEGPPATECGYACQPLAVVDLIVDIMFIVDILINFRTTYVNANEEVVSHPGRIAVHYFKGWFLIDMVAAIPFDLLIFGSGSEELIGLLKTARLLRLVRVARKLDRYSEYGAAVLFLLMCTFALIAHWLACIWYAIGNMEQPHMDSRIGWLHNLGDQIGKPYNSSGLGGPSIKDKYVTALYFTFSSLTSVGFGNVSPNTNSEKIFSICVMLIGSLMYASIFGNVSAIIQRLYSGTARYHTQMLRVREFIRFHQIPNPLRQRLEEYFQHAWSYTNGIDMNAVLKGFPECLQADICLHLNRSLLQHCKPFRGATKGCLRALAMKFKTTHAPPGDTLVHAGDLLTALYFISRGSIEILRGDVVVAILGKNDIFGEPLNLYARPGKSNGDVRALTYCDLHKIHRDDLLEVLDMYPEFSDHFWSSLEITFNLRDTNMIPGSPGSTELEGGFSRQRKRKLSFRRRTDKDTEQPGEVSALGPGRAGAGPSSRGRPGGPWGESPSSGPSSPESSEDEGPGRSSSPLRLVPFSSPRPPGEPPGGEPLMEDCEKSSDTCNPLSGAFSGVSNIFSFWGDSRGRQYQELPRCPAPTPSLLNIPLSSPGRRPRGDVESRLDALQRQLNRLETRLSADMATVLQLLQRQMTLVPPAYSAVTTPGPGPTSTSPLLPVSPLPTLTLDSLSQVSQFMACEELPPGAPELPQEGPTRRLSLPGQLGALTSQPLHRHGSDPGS
`ClC1=C(Cl)[C@]2(Cl)[C@@H]3[C@@H]4C[C@@H]([C@H]5O[C@@H]45)[C@@H]3[C@@]1(Cl)C2(Cl)Cl` [Dieldrin] was tested, and the IC50 was 33.1 µM. For `COc1ccc(C(c2ccc(OC)cc2)C(Cl)(Cl)Cl)cc1` [Methoxychlor], the IC50 was 20.5 µM. With `CN(C)C(=S)SSC(=S)N(C)C` [Bis(dimethylaminothiocarbonyl) disulfide] the IC50 was 22.1 µM. With `CCCCCCCCCCCCn1cc[n+](C)c1` [1-Dodecyl-3-methylimidazolium trifluoromethanesulfonate] the IC50 was 4.61 µM. In the case of `CCCCOc1cc(C(=O)NCCN(CC)CC)c2ccccc2n1` [Dibucaine], the IC50 is reported as 6.74 µM. `CN1CCN(C2Cc3ccccc3Sc3ccc(Cl)cc32)CC1` (stereo not shown) [Octoclothepine maleate] showed an IC50 of 0.849 µM. With `CN1CCC(N(Cc2cccs2)c2ccccc2)CC1` [Thenalidine] the IC50 was 4.96 µM. `CN(C)c1ccc(C(=C2C=CC(=[N+](C)C)C=C2)c2ccccc2)cc1` [Malachite green oxalate] showed an IC50 of 3.51 µM. In the case of `CCCC(=O)O[C@]1(C(=O)CCl)[C@@H](C)C[C@H]2[C@@H]3CCC4=CC(=O)C=C[C@]4(C)[C@@]3(F)C(=O)C[C@@]21C` [Clobetasone butyrate], the IC50 is reported as 8.01 µM. `C[C@]12CC[C@H]3[C@@H](CCC4=CC(=O)CC[C@@H]43)[C@@H]1CC[C@@H]2OC(=O)CCC1CCCCC1` [Nandrolone cyclohexylpropionate] showed an IC50 of 15.1 µM. With `CC1(C)CCC(C)(C)c2cc(C(=O)Nc3ccc(C(=O)O)cc3)ccc21` [AM580] the IC50 was 43.6 µM. For `O=C(OCCOCCO)c1ccccc1Nc1cccc(C(F)(F)F)c1` [Etofenamate], the IC50 was 13.4 µM. `CCN(CC)CCOC(=O)C(C)(c1ccccc1)c1ccccc1` [Aprofene] gave an IC50 of 9.16 µM. Work on `CN1CCN(Cc2cc(-c3ccc4[nH]c(=O)oc4c3)co2)[C@@H](c2ccc(F)cc2)C1` [AVE8488] yielded an IC50 of 37.4 µM. With `CCc1cc(Cl)c(OC)c(C(=O)NC[C@@H]2CCCN2CC)c1O` [Eticlopride hydrochloride] the IC50 was 7.56 µM. `CCOC(=O)C1=C[C@]2(CC)CCCN3CCc4c(n1c1ccccc41)[C@@H]32` [Vinpocetine] was tested, and the IC50 was 0.169 µM. For `CCCCCCCCCCCCN(CCO)CCO` [Lauryldiethanolamine], the IC50 was 11.8 µM. `O=C(CCS)OCC(COC(=O)CCS)(COC(=O)CCS)COC(=O)CCS` [3-[(3-Sulfanylpropanoyl)oxy]-2,2-bis{[(3-sulfanylpropanoyl)oxy]methyl}propyl 3-sulfanylpropanoate] was tested, and the IC50 was 33.4 µM. `CCCCCCCCCCCCn1cc[n+](C)c1` [1-Dodecyl-3-methylimidazolium hexafluorophosphate] gave an IC50 of 4.2 µM. `Clc1ccc(C(c2ccccc2Cl)C(Cl)Cl)cc1` (stereo not shown) [1-(2-Chlorophenyl)-1-(4-chlorophenyl)-2,2-dichloroethane] gave an IC50 of 21.9 µM. Work on `CCOC(=O)C(C)Oc1ccc(Oc2cnc3cc(Cl)ccc3n2)cc1` (stereo not shown) [Quizalofop-ethyl] yielded an IC50 of 17.1 µM. `CN1C[C@H](C(=O)N[C@]2(C)O[C@@]3(O)[C@@H]4CCCN4C(=O)[C@H](Cc4ccccc4)N3C2=O)C=C2c3cccc4[nH]cc(c34)C[C@H]21` [Ergotamine D-tartrate] showed an IC50 of 11.9 µM. `O=[N+]([O-])c1cccc(S(=O)(=O)NCCNS(=O)(=O)c2cccc([N+](=O)[O-])c2)c1` [Dinsed] showed an IC50 of 14.5 µM. `Oc1ccc2[nH]cc(CCCCN3CC=C(c4ccccc4)CC3)c2c1` [Roxindole] was tested, and the IC50 was 3.38 µM. In the case of `O=S1OC[C@@H]2[C@H](CO1)[C@]1(Cl)C(Cl)=C(Cl)[C@@]2(Cl)C1(Cl)Cl` (stereo partly shown) [Endosulfan I], the IC50 is reported as 43.6 µM. Work on `O=C(C=Cc1ccccc1)OCCCc1ccccc1` [3-Phenylpropyl cinnamate] yielded an IC50 of 19.5 µM. With `C=CCOC(Cn1ccnc1)c1ccc(Cl)cc1Cl` (stereo not shown) [Imazalil] the IC50 was 29.8 µM. With `Oc1ccc(Cl)cc1Cc1cc(Cl)ccc1O` [Dichlorophen] the IC50 was 27 µM. `CCCCCCCCCCCCCCCCn1cc[n+](C)c1` [1-Hexadecyl-3-methylimidazolium tetrafluoroborate] was tested, and the IC50 was 9.86 µM. `CCCCOC(=O)[C@@H](C)Oc1ccc(Oc2ccc(C(F)(F)F)cn2)cc1` [Fluazifop-P-butyl] gave an IC50 of 22 µM. `CC(C)(C)c1ccc(CCC=O)cc1` [3-(4-tert-Butylphenyl)propanal] gave an IC50 of 49 µM. With `Cc1cc(C)c(C(=O)P(=O)(c2ccccc2)c2ccccc2)c(C)c1` [Diphenyl(2,4,6-trimethylbenzoyl)phosphine oxide] the IC50 was 20.3 µM. `Cc1cc2c3c(c1)C(c1ccccc1)=N[C@@H](NC(=O)c1ccncc1)C(=O)N3CC2` [CI-1018] was tested, and the IC50 was 25.5 µM. In the case of `CCCCOC(=O)[C@@H](C)Oc1ccc(Oc2ccc(C#N)cc2F)cc1` [Cyhalofop-butyl], the IC50 is reported as 4.87 µM. Compound `O=C1NCN(c2ccccc2)C12CCN(CC1COc3ccccc3O1)CC2` (stereo not shown) [Spiroxatrine] has an IC50 of 6.24 µM. `CCOC(=O)C1(c2ccccc2)CCN(CCc2ccc(N)cc2)CC1` [Anileridine] was tested, and the IC50 was 18.3 µM. For `CCN1CCCC1CNC(=O)C(O)(c1ccccc1)c1ccccc1` (stereo not shown) [Epicainide], the IC50 was 19.7 µM. In the case of `O=C(Oc1ccccc1)c1cccc(C(=O)Oc2ccccc2)c1` [Diphenyl isophthalate], the IC50 is reported as 25 µM. For `C/C=C\C/C=C/CCCCCCCCOC(C)=O` [(E,Z)-Tetradeca-9,12-dienyl acetate], the IC50 was 36.7 µM. In the case of `CCOCn1c(-c2ccc(Cl)cc2)c(C#N)c(Br)c1C(F)(F)F` [Chlorfenapyr], the IC50 is reported as 15.5 µM. `COP(=S)(OC)Oc1cc(Cl)c(I)cc1Cl` [Iodenphos] showed an IC50 of 45.3 µM. `O=[N+]([O-])c1ccc(Oc2ccc([N+](=O)[O-])cc2)cc1` [1,1'-Oxybis(4-nitrobenzene)] gave an IC50 of 32.8 µM. Compound `Oc1ccc(C(=C(Cl)Cl)c2ccc(O)cc2)cc1` [Bis(4-hydroxyphenyl)-2,2-dichloroethylene] has an IC50 of 47 µM. Work on `CCc1cccc(N(C)C(N)=Nc2cccc3ccccc23)c1` [Aptiganel hydrochloride] yielded an IC50 of 10.3 µM. `O=C1c2ccccc2C(=O)N1SC(Cl)(Cl)Cl` [Folpet] gave an IC50 of 27.5 µM. With `CNCCC(Oc1ccccc1OC)c1ccccc1` (stereo not shown) [Nisoxetine] the IC50 was 9.52 µM. For `CC(Cc1ccc(C(C)(C)C)cc1)CN1C[C@@H](C)O[C@@H](C)C1` (stereo partly drawn) [(2R,6S)-Fenpropimorph], the IC50 was 15.5 µM. `CN1CCCC(CC2c3ccccc3Sc3ccccc32)C1` (stereo not shown) [Metixene hydrochloride] gave an IC50 of 4.77 µM. `C=CCNc1nc(NCC=C)nc(N2CCN(C(c3ccc(F)cc3)c3ccc(F)cc3)CC2)n1` [Almitrine dimethanesulfonate] was tested, and the IC50 was 6.01 µM. Work on `OC(c1ccc(Cl)cc1)(c1ccc(Cl)cc1)c1cccnc1` [Parinol] yielded an IC50 of 20.3 µM. `CCCCCCCCCCOCC(O)CN` (stereo not shown) [Decominol hydrochloride] showed an IC50 of 20.5 µM. With `O=C(CCCCCCCCc1cccnc1)N1CCC(C=C(c2ccccc2)c2ccccc2)CC1` [Ro 23-7637] the IC50 was 11 µM. With `CCCCCCCCCCn1cc[n+](C)c1` [1-Decyl-3-methylimidazolium chloride] the IC50 was 16.7 µM. `Nc1ccc(N=Nc2ccccc2)c(N)c1` [C.I. Basic Orange 2] showed an IC50 of 19.8 µM. `CCCCCCCCCCCCCC[P+](CCCCCC)(CCCCCC)CCCCCC.N#C[N-]C#N` [Trihexyltetradecylphosphonium dicyanamide] was tested, and the IC50 was 0.55 µM. `CC(C)N1C(=O)N(c2ccccc2)CS/C1=N\C(C)(C)C` [Buprofezin] was tested, and the IC50 was 19.5 µM. With `CC(C)(C)CC(C)(C)c1ccc(O)cc1` [4-(1,1,3,3-Tetramethylbutyl)phenol] the IC50 was 21.3 µM. `C[C@]12CC[C@@H]3c4ccc(O)cc4CC[C@H]3[C@@H]1CC[C@@H]2OC(=O)CCC1CCCC1` [Estradiol cypionate] gave an IC50 of 43.6 µM. `CCOP(=S)(OCC)SCn1c(=O)oc2cc(Cl)ccc21` [Phosalone] gave an IC50 of 23.5 µM. For `O=C(Oc1ccccc1)c1ccc2ccccc2c1O` [Phenyl 1-hydroxy-2-naphthoate], the IC50 was 49 µM. With `CN(Cc1cc(Br)cc(Br)c1N)C1CCCCC1` [Bromhexine hydrochloride] the IC50 was 12.5 µM. `O=C(CCCN1CCC(n2c(O)nc3ccccc32)CC1)c1ccc(F)cc1` [Benperidol] was tested, and the IC50 was 1.76 µM. For `CC(C)(c1ccccc1)c1ccc(O)c(C(C)(C)c2ccccc2)c1` [2,4-Bis(1-methyl-1-phenylethyl)phenol], the IC50 was 21.7 µM. `CC1COC(Cn2cncn2)(c2ccc(Oc3ccc(Cl)cc3)cc2Cl)O1` (stereo not shown) [Difenoconazole] gave an IC50 of 22.7 µM. `O=C(NC(=O)c1c(F)cccc1F)Nc1ccc(Oc2ccc(C(F)(F)F)cc2Cl)cc1F` [Flufenoxuron] gave an IC50 of 37.4 µM. In the case of `O=C(C=Cc1ccccc1)OCCc1ccccc1` [Phenethyl cinnamate], the IC50 is reported as 36 µM. `CC(C)=CC1C(C(=O)OCN2C(=O)C3=C(CCCC3)C2=O)C1(C)C` (stereo not shown) [Tetramethrin] showed an IC50 of 40.4 µM. `c1ccc(C[P+](c2ccccc2)(c2ccccc2)c2ccccc2)cc1` [Benzyltriphenylphosphonium chloride] gave an IC50 of 2.27 µM. Work on `Cc1c(C)n(Cc2ccccc2)c2ccc(C(=O)OCCN(C)C)cc12` [Indocate] yielded an IC50 of 14.2 µM. In the case of `CC(C)c1ccc2c(c1)CC[C@H]1[C@](C)(CN)CCC[C@]21C` [Dehydroabietylamine acetate], the IC50 is reported as 13.3 µM. `c1ccc(C(O[C@@H]2CCCN(CCc3ccc4c(c3)OCO4)C2)c2ccccc2)cc1` [Zamifenacin] gave an IC50 of 0.838 µM. For `CCCCCCCCCCCCN` [Dodecylamine hydrochloride], the IC50 was 13.3 µM. `COC(=O)[C@H]1[C@H]2C[C@@H]3c4[nH]c5cc(OC)ccc5c4CCN3C[C@H]2C[C@@H](OC(=O)/C=C/c2ccc(O)c(OC)c2)[C@@H]1OC` [Rescimetol] showed an IC50 of 1.57 µM. With `Cn1c(-c2ccccc2)cc(-c2ccccc2)[n+]1C` [Difenzoquat metilsulfate] the IC50 was 34.7 µM. For `CN1C(=O)N(c2ccccc2Br)Cc2cnc(Nc3ccc4c(c3)OCC(CO)O4)nc21` (stereo not shown) [PharmaGSID_48519], the IC50 was 43.6 µM. Work on `CCCN(CCC)C(=O)Cc1c(-c2ccc(Cl)cc2)nc2ccc(Cl)cn12` [Alpidem] yielded an IC50 of 20.5 µM. `NCc1cccc(C2CCN(C(=O)c3ccc(C#Cc4ccccc4F)o3)CC2)c1` [AVE5638] gave an IC50 of 9.77 µM. For `O=CC=C(c1ccccc1)c1ccccc1` [3,3-Diphenylacrylaldehyde], the IC50 was 42.4 µM. With `Nc1ccc(C(=O)OCCCOC(=O)c2ccc(N)cc2)cc1` [1,3-Propanediol, bis(4-aminobenzoate)] the IC50 was 12.3 µM. `CC(C)Oc1cccc(NC(=O)c2ccccc2C(F)(F)F)c1` [Flutolanil] was tested, and the IC50 was 50.9 µM. For `CSc1ccc2c(c1)C(N1CCN(C)CC1)Cc1ccccc1S2` (stereo not shown) [Metitepine], the IC50 was 1.15 µM. `O=C(c1ccc(F)cc1)C1CCN(CCn2c(=S)[nH]c3ccccc3c2=O)CC1` [Altanserin hydrochloride] was tested, and the IC50 was 0.817 µM.
